20 compounds from patent publication US9296723B2, “NAMPT inhibitors” (AbbVie Inc., priority 2012, dated 2016) can be followed below.

For assay [1], the target named is T1, NAMPT (Homo sapiens, UniProt P43490). Kind of assay: Time-Resolved Fluorescence Resonance Energy Transfer (TR-FRET) Binding Assay of NAMPT. The following applies: 6.8 nM NAMPT, 200 nM probe, equilibrated 3 hours, no substrates. The gist of the method: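 IC50s come from four-parameter logistic fits of control-normalized Em520/Em495 TR-FRET ratios (Ex 337 nm) against compound concentration. Before reading, enzyme, probe, antibody and compound equilibrated for 3 h at room temperature.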
T1 sequence (P43490 whole entry): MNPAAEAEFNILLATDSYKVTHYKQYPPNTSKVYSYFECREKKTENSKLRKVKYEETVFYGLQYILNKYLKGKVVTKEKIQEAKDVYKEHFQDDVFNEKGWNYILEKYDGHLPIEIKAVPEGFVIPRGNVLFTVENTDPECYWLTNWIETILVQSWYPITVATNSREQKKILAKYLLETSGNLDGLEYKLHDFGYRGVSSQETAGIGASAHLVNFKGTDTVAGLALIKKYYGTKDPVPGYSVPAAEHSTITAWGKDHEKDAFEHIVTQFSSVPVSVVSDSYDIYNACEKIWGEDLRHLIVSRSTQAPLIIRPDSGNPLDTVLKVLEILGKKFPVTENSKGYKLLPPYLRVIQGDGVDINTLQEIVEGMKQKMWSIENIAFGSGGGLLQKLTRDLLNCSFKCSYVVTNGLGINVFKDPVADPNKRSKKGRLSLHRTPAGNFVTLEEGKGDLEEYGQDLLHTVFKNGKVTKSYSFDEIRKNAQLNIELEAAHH

The test system of another assay is PC3 cells. Description: NAMPT Cell Proliferation Assay (Cell Titer Glo). Particulars: Homo sapiens, PC-3, 120 h, incubated 5 days, cell viability. The assay is classed as cell-based. The procedure, abridged:
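Viability measured by Cell Titer Glo luminescence after 5-day exposure of attached PC3 cells to compound, dosed as 10-fold serial dilutions ([…]) in RPMI/10% FBS at 37 °C and 5% CO2. Percent inhibition fitted to sigmoidal dose-response curves for IC50.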
(In general: ATP-based viability assays read luminescence as a measure of living cells.)

Assay [2] concerns the target T1, NAMPT. Kind of assay: TR-FRET Binding Assay of NAMPT with PRPP. Particulars: 2 nM NAMPT, 2 nM probe, 200 µM PRPP and 2.5 mM ATP, equilibrated 16 hours. The procedure, abridged: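 Substrates present: PRPP at 200 µM and ATP at 2.5 mM, final, alongside 2 nM enzyme, 2 nM tracer and 1 nM terbium anti-His donor in 2% DMSO. A 16-hour equilibration preceded the time-resolved FRET read, allowing compounds to be enzymatically modified.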
A general note: Time-resolved FRET reads energy transfer from a long-lived donor to a nearby acceptor.

The structures appear in SMILES notation.

With `O=C(Nc1ccc(C2CN(C(=O)c3ccccc3)C2)cc1)N1CC(c2cccnc2)C1` [Example 107, N-[4-(1-benzoylazetidin-3-yl)phenyl]-3-(pyridin-3-yl)azetidine-1-carboxamide], the 50% inhibitory concentration (IC50) – broadly, the concentration at which inhibition is half-maximal – on NAMPT [1] was 0.0123 µM; in the assay on PC3 cells it was 0.00599 µM; at NAMPT [2], 0.000342 µM.
The like results for `O=C(CC(F)(F)F)N1CC(c2ccc(NC(=O)N3CC(c4cccnc4)C3)cc2)C1` [Example 108, 3-(pyridin-3-yl)-N-{4-[1-(3,3,3-trifluoropropanoyl)azetidin-3-yl]phenyl}azetidine-1-carboxamide] were, in that order, 0.122 µM, 0.0815 µM and 0.000411 µM.
The like results for `O=C(Nc1ccc(C2CN(C(=O)C3CC3)C2)cc1)N1CC(c2cccnc2)C1` [Example 109, N-{4-[1-(cyclopropylcarbonyl)azetidin-3-yl]phenyl}-3-(pyridin-3-yl)azetidine-1-carboxamide] were, in that order, 0.306 µM, 0.11 µM and 0.000596 µM.
The like results for `CC[C@H](C)C(=O)N1CC(c2ccc(NC(=O)N3CC(c4cccnc4)C3)cc2)C1` [Example 110, N-(4-{1-[(2S)-2-methylbutanoyl]azetidin-3-yl}phenyl)-3-(pyridin-3-yl)azetidine-1-carboxamide] were, in that order, 0.0353 µM, 0.0118 µM and 0.000421 µM.
Consider `CCCC(=O)N1CC(c2ccc(NC(=O)N3CC(c4cccnc4)C3)cc2)C1` [Example 111, N-[4-(1-butanoylazetidin-3-yl)phenyl]-3-(pyridin-3-yl)azetidine-1-carboxamide], for which the values for the concentration for half-maximal inhibition (IC50) at NAMPT [1], in the assay with PC3 cells and on NAMPT [2] were 0.0539 µM, 0.0292 µM and 0.000292 µM, respectively.
For `CC(C)(C)OC(=O)N1CCC(c2ccc(NC(=O)N3CC(c4cccnc4Cl)C3)cc2)CC1` [Example 112, tert-butyl 4-[4-({[3-(2-chloropyridin-3-yl)azetidin-1-yl]carbonyl}amino)phenyl]piperidine-1-carboxylate], the IC50 on NAMPT [1] is 0.0435 µM; in the assay on PC3 cells it was 0.906 µM; at NAMPT [2], 0.0459 µM.
Take `CC(C)(C)OC(=O)N1CCC(c2ccc(NC(=O)N3CC(c4cnccc4Cl)C3)cc2)CC1` [Example 113, tert-butyl 4-[4-({[3-(4-chloropyridin-3-yl)azetidin-1-yl]carbonyl}amino)phenyl]piperidine-1-carboxylate]: the half-maximal inhibitory concentration (IC50) worked out at 0.0758 µM on NAMPT [1], 0.113 µM in the assay with PC3 cells and 0.0147 µM at NAMPT [2].
On to `O=C(CC1CC1)N1CC(Oc2ccc(NC(=O)N3CC(c4cccnc4)C3)cc2)C1` [Example 114, N-(4-{[1-(cyclopropylacetyl)azetidin-3-yl]oxy}phenyl)-3-(pyridin-3-yl)azetidine-1-carboxamide], for which the IC50 is 0.0158 µM on NAMPT [1], 0.00811 µM in the assay on PC3 cells and 0.000189 µM on NAMPT [2].
Take `CC(C)(C)OC(=O)N1CCC(c2ccc(NC(=O)N3CC(c4cccnc4F)C3)cc2)CC1` [Example 116, tert-butyl 4-[4-({[3-(2-fluoropyridin-3-yl)azetidin-1-yl]carbonyl}amino)phenyl]piperidine-1-carboxylate]: the figures for the IC50 at NAMPT [1], with PC3 cells and at NAMPT [2] were 0.0267 µM, 0.135 µM and 0.000744 µM, respectively.
On to `CCCCC(=O)N1CC(Oc2ccc(NC(=O)N3CC(c4cccnc4)C3)cc2)C1` [Example 117, N-{4-[(1-pentanoylazetidin-3-yl)oxy]phenyl}-3-(pyridin-3-yl)azetidine-1-carboxamide], for which the values for the half-inhibitory concentration (IC50) on NAMPT [1], with PC3 cells and at NAMPT [2] were 0.0188 µM, 0.00983 µM and 0.000327 µM, respectively.
The like results for `COCCOCC(=O)N1CC(Oc2ccc(NC(=O)N3CC(c4cccnc4)C3)cc2)C1` [Example 118, N-[4-({1-[(2-methoxyethoxy)acetyl]azetidin-3-yl}oxy)phenyl]-3-(pyridin-3-yl)azetidine-1-carboxamide] were, in that order, 0.036 µM, 0.0777 µM and 0.000324 µM.
With `CCOCC(=O)N1CC(Oc2ccc(NC(=O)N3CC(c4cccnc4)C3)cc2)C1` [Example 119, N-(4-{[1-(ethoxyacetyl)azetidin-3-yl]oxy}phenyl)-3-(pyridin-3-yl)azetidine-1-carboxamide], the figures for the concentration for half-maximal inhibition (IC50) at NAMPT [1], in the assay with PC3 cells and at NAMPT [2] were 0.117 µM, 0.0769 µM and 0.000978 µM, respectively.
The like results for `COCC(=O)N1CC(Oc2ccc(NC(=O)N3CC(c4cccnc4)C3)cc2)C1` [Example 120, N-(4-{[1-(methoxyacetyl)azetidin-3-yl]oxy}phenyl)-3-(pyridin-3-yl)azetidine-1-carboxamide] were, in that order, 0.145 µM, 0.078 µM and 0.000689 µM.
The like results for `CCC(C)CC(=O)N1CC(Oc2ccc(NC(=O)N3CC(c4cccnc4)C3)cc2)C1` (stereo not drawn) [Example 121, N-(4-{[1-(3-methylpentanoyl)azetidin-3-yl]oxy}phenyl)-3-(pyridin-3-yl)azetidine-1-carboxamide] were, in that order, 0.0186 µM, 0.00773 µM and 0.000497 µM.
The like results for `O=C(CC1C[C@@H]2CC[C@H]1C2)N1CC(Oc2ccc(NC(=O)N3CC(c4cccnc4)C3)cc2)C1` (stereo partly drawn) [Example 122, N-[4-({1-[(1S,4R)-bicyclo[2.2.1]hept-2-ylacetyl]azetidin-3-yl}oxy)phenyl]-3-(pyridin-3-yl)azetidine-1-carboxamide] were, in that order, 0.0166 µM, 0.00881 µM and 0.000588 µM.
Take `CC(C)CCC(=O)N1CC(Oc2ccc(NC(=O)N3CC(c4cccnc4)C3)cc2)C1` [Example 124, N-(4-{[1-(4-methylpentanoyl)azetidin-3-yl]oxy}phenyl)-3-(pyridin-3-yl)azetidine-1-carboxamide]: the half-maximal inhibitory concentration (IC50) was 0.0149 µM at NAMPT [1], 0.00775 µM in the assay with PC3 cells and 0.000375 µM on NAMPT [2].
The like results for `CC1CC1C(=O)N1CC(Oc2ccc(NC(=O)N3CC(c4cccnc4)C3)cc2)C1` (stereo not drawn) [Example 125, N-[4-({1-[(2-methylcyclopropyl)carbonyl]azetidin-3-yl}oxy)phenyl]-3-(pyridin-3-yl)azetidine-1-carboxamide] were, in that order, 0.0293 µM, 0.00812 µM and 0.000271 µM.
Take `O=C(CCC(F)(F)F)N1CC(Oc2ccc(NC(=O)N3CC(c4cccnc4)C3)cc2)C1` [Example 126, 3-(pyridin-3-yl)-N-(4-{[1-(4,4,4-trifluorobutanoyl)azetidin-3-yl]oxy}phenyl)azetidine-1-carboxamide]: the half-maximal inhibitory concentration (IC50) on NAMPT [1] is 0.0144 µM; with PC3 cells it was 0.00738 µM; at NAMPT [2], 0.000401 µM.
The like results for `CC(C)C(=O)N1CC(Oc2ccc(NC(=O)N3CC(c4cccnc4)C3)cc2)C1` [Example 127, N-(4-{[1-(2-methylpropanoyl)azetidin-3-yl]oxy}phenyl)-3-(pyridin-3-yl)azetidine-1-carboxamide] were, in that order, 0.0934 µM, 0.071 µM and 0.000603 µM.
The like results for `CC(C)(C)C(=O)N1CC(Oc2ccc(NC(=O)N3CC(c4cccnc4)C3)cc2)C1` [Example 128, N-(4-{[1-(2,2-dimethylpropanoyl)azetidin-3-yl]oxy}phenyl)-3-(pyridin-3-yl)azetidine-1-carboxamide] were, in that order, 0.0304 µM, 0.00836 µM and 0.000519 µM.
